The values that follow come from patent US5114926A, “Tetrapeptide inhibiting the entry into cycle of hemopoietic stem cells processes for its preparation, and its uses” (Institut National De La Sante Et De La Recherche Medicale, priority 1986, dated 1992).

Values joined by “and” are separate entries in the source; they are usually repeats but may differ in a detail not shown here. Equal values may be shown once. Where a SMILES comes first, the peptide text is derived from it.

Series [1] concerns CFU-S. The series can be described thus: in vivo inhibition of the entry into cycle of the CFU-S induced by an injection of Ara-C. On the set-up: species or system mice of Balb/C or CBA strain. The following applies: for % of CFU-S in DNA synthesis: protocol II, i.p.; for biological activity compared with the natural peptide: synthetic versus natural peptide, tables I, II and III. The procedure: The biological activity of the fractions is measured by in vivo inhibition tests of the entry into cycle of the CFU-S, induced by an injection of Ara-C.
The CFU-S of the mouse, normally quiescent, enter into cycle after an injection of Ara-C.
The number of CFU-S is determined by the technique of J. E. Till and E. A. McCulloch, Radiat. Res. 14, (1961), 213-222, whose principle rests on the capacity of CFU-S to form macroscopic colonies in the spleen. These colonies are clones descended from one CFU-S.
The proportion of CFU-S in S phase is determined by the method of A. J. Becker et al., Blood, 26, (1965), 296-308, based on the principle of cellular suicides. The incubation of the cells with a tritiated thymidine (precursor of DNA) solution leads to the selective death of the cells in phase of DNA synthesis by integration of a lethal dose of radioactivity (tritium) into the DNA molecule.
The tests are performed on SPF (Specific Pathogen Ffree)mice of Balb/C or CBA strain, aged from 2 to 3 months.
1. The control groups receive by the i.p. route the following treatment:
Time 0: Ara-C (10 mg--protocol I or 20 mg--protocol II) dissolved in 0.2 ml of saline;
Time 6H: 0.2 ml of saline;
Time 8H: sacrifice (protocol I);
Time 12H: sacrifice (protocol II).
2. The treated groups receive by the i.p. route:
Time 0: Ara-C (10 mg--protocol I or 20 mg--protocol II) dissolved in 0.2 ml of saline.
Time 6h: fraction to be tested dissolved in 0.2 ml of saline;
Time 8H: sacrifice (protocol I):
Time 12H: sacrifice (protocol II). [drawing 1]
For each of the groups, the bone marrow of the animals is collected and suspended in 2 ml of Medium 199 (EUROBIO). After the numbering and suitable dilution, 2 aliquots of 5×10^6 nucleated cells are incubated at 37° C. for 20 min. either with 1 ml of Medium 199 (Test A), or with 1 ml of tritiated thymidine (200 μCi) (Test B). A cellular suspension of 0.2 ml containing 8×10^4 to 1.2×10^5 nucleated cells is injected intravenously into the retro-orbital sinus of the irradiated receiver animals (9 Gy, 8 mice per experimental plot). Nine days later, the receiver mice are sacrificed, their spleen taken out and fixed in Bouin fluid (1% picric acid: 720 g; formol: 240 g; acetic acid: 4 g, per 1 l of fluid). After some hours of fixation, the nodules visible macroscopically are counted.
If N and N' are the average numbers of the nodules obtained on the spleens of the receivers having received cells coming form tests A and B respectively, the proportion of CFU-S in phase of DNA synthesis is calculated by the formula: [formula]

Series [2] concerns CFU-S. The experiment in a line: toxicity with respect to CFU-S. The following applies: at the doses used. In kind it is in vivo, mice.
The test system of series [3] is EMT6 tumor. The experiment in a line: regression of EMT6 tumors under Ara-C plus inhibitor. In kind it is in vivo, mice. Particulars: EMT6 tumor carriers, Ara-C at 0, 7, 24 and 30 hours, inhibitor at 26 hours.
A short description of series [4]: survival of animals treated with lethal doses of Ara-C. Format: in vivo, mice. Particulars: Ara-C 4×925 mg/kg at 0, 7, 24 and 30 hours; tested fraction once at 26 hours. The procedure:
The animals receive fractionated doses of Ara-C (4×925 mg/kg) at times 0, 7, 24 and 30 hours. The tested fraction is administered at once 26 hours after the first injection of Ara-C. The survival of the animals is estimated 15-30 days after the treatment.

A short description of series [5]: lethality in the treated mice. In kind it is in vivo. Particulars: at the doses used.

On to `Nc1ccn([C@@H]2O[C@H](CO)[C@@H](O)[C@@H]2O)c(=O)n1` [Ara-C, cytosine arabinoside, reference compound], for which the “percentages of CFU-S in phase of DNA synthesis” value in series [1] (ARA-C alone, Table III batch A series (5 exp.)) is on record as 40.7 ± 9.3%; in series [1] (ARA-C alone, Table III batch B series (2 exp.)) it was 47.4 ± 9%. Besides, the “percentages of CFU-S in phase of DNA synthesis, mean” value (“percentages of CFU-S in phase … mean” for short) in series [1] (ARA-C alone, mean of Table II tests 1-8) is given as 38.7%; in series [1] (ARA-C alone, mean of Table III series A and B) it was 44.1%. Moreover, the “% of CFU-S in DNA synthesis” value in series [1] (Ara-C (20 mg) alone) is listed as 43 ± 9%.

Turning to `CC(=O)N[C@@H](CO)C(=O)N[C@@H](CC(=O)O)C(=O)N[C@@H](CCCCN)C(=O)N1CCC[C@H]1C(=O)O` [inhibitor, n--acetyl-seryl-aspartyl-lysyl-proline] (Ac-SDKP-OH), in series [2], the “toxicity with respect to CFU-S” value is recorded as “devoided of toxicity with respect to CFU-S”. Besides, in series [3], the “effect on the therapeutic action of Ara-C with respect to tumor cells” value is “does not prevent the therapeutic action of Ara-C with respect to tumor cells”. Further, the “survival of the treated animals” value in series [3] (comparable with bone marrow grafting) is given as “permits the survival of the treated animals”. Further, in series [4], the “survival of the animals 15-30 days after the treatment” value is “enabled the definitive survival of a large number of animals”. Also, the “percentages of CFU-S in phase of DNA synthesis” value in series [1] (ARA-C + natural peptide 100 ng/mouse, bone marrow batch A (5 exp.)) was 12.6 ± 14.8%; in series [1] (ARA-C + natural peptide 100 ng/mouse, bone marrow batch B (2 exp.)) it was 2.99 ± 13%. Also, the “percentages of CFU-S in phase … mean” value in series [1] (ARA-C + natural peptide, mean of batches A and B) is on record as 7.8%. In addition, the “% of CFU-S in DNA synthesis” value in series [1] (Ara-C (20 mg) + inhibitor (100 ng per mouse)) came to 7 ± 4%. For the same compound, the “dosage at which the fraction is active in the mouse” value in series [1] (homogeneous fraction after reverse phase HPLC) is “about 100 ng/mouse”. In addition, the “entry of the CFU-S into DNA synthesis (S phase)” value in series [1] (inhibitor injected 6 hours after Ara-C) is “prevents the entry of the CFU-S into DNA synthesis”. The “lethality in the treated mice” value in series [5] is on record as “does not result in any lethality”.

Take `CC(=O)N[C@@H](CO)C(=O)N[C@@H](CC(=O)O)C(=O)N[C@@H](CCCCN)C(=O)N1CCC[C@H]1C(=O)O` [synthetic tetrapeptide, Ac-S-D-K-P--OH] (Ac-SDKP-OH): the “percentages of CFU-S in phase of DNA synthesis” value in series [1] (ARA-C + synthetic tetrapeptide 25 ng/mouse, test 6, second synthesis) is 19%; in series [1] (ARA-C + synthetic tetrapeptide 50 ng/mouse, test 5, second synthesis), 13%; in series [1] (ARA-C + synthetic tetrapeptide 100 ng/mouse, tests 4, 7, 8, second synthesis) it was 6% and 10%. In series [1] (ARA-C + synthetic tetrapeptide, mean of tests 1-8 (25-100 ng/mouse)), the “percentages of CFU-S in phase … mean” value was 10.5%. In addition, the results for the “biological activity compared with the natural peptide” value in series [1] and in series [1] (listed as synthetic peptide) were “possesses the biological properties of the natural peptide” and “quite similar activity to that obtained with a natural peptide”, respectively.
